Measurements taken from patent publication US20060009425A1, “Oral formulations of paricalcitol” (priority 2004, published 2006).
Where two headings read alike, the source gives them in different places.

What was measured:
[1] = Bioavailability of capsule vs intravenous formulation, end-stage renal disease on hemodialysis (Example 3); type: in vivo; settings: human, plasma
Experimental: Methodology: This was a Phase I, open-label, randomized, single-dose, two-period, crossover, nonfasting study. Subjects were randomized into two sequence groups of Regimens A and B. The two nonfasting study regimens were:
The intravenous formulation contained 2-10 micrograms/milliliter of paricalcitol, 30% (v/v) propylene glycol, 20% (v/v) ethanol and 50% (v/v) water.
Both regimens were administered at the end of a regular hemodialysis session on Study Day 1, 30 minutes after a breakfast was served. […] Fourteen subjects participated in the study. […] A washout interval of at least 7 days separated the doses of the two study periods. […] Plasma concentrations of paricalcitol were determined using a validated liquid chromatography—tandem mass spectrometric assay method at Abbott Laboratories, Abbott Park, Ill. […] The lower limit of quantification of paricalcitol was 0.02 ng/mL using a 0.6 mL plasma sample.
Pharmacokinetics: The pharmacokinetic parameter values of paricalcitol were estimated using noncompartmental methods. […] The volume of distribution for intravenous administration (Vdβ) and apparent volume of distribution for oral administration (Vdβ/F) value were calculated by dividing the clearance by β. […]

[2] = Single and multiple dose pharmacokinetics, 4 μg QD vs 8 μg TIW, subjects in general good health (Example 5); type: in vivo, human; settings: for AUC(0-inf) / Cmax / Tmax / half-life / AUC(0-t): human, plasma, oral; for half-life: harmonic mean ± pseudo-standard deviation
Experimental: Methodology: This Phase I, multiple-dose, open-label, randomized study was conducted according to an […], crossover design. Subjects were randomized into two sequence groups of equal size of Regimens A and B. Subjects received the following regimens: • Regimen A: One 4 μg paricalcitol soft elastic capsule on Study Day 1 and one 4 μg paricalcitol capsule QD for 11 doses on Study Days 3 through 13. • Regimen B: Two 4 μg paricalcitol soft elastic capsules three times a week (8 μg TIW) for 6 doses on Study Days 1, 3, 5, 8, 10, and 12.
The paricalcitol dose was administered at approximately 0700, 30 minutes after breakfast was served on the dosing days of each period. Each dose was administered orally with 240 mL of water. A washout interval of at least 7 days separated the dose of period 1 and dose of period 2.
Seven (7) mL blood samples (to yield at least 3 mL of plasma) were obtained by venipuncture for paricalcitol plasma concentration into appropriately labeled EDTA-containing collection tubes. The blood sampling was as shown below in Table 10.
For Regimen B, a blood sample was collected 48 hours after the Study Day 5 dose (Study Day 7) and immediately prior to dosing (0 hour) on Study Day 10.
Plasma concentrations of paricalcitol were determined using a validated liquid chromatography-tandem mass spectrometric assay method at Abbott Laboratories, Abbott Park, Ill. (a proprietary method of Abbott Laboratories). The lower limit of quantification (abbreviated as “LOQ”) of paricalcitol was 0.02 ng/mL using a 0.6 mL plasma sample.
Pharmacokinetics: The following pharmacokinetic parameter values were determined using standard non-compartmental methods: maximum observed plasma concentration (Cmax), time to Cmax(Tmax), terminal phase elimination rate constant (β), terminal elimination half-life (t1/2), area under the plasma concentration vs. time curve extrapolated to infinite time (AUC0-∞) following the first dose and area under the plasma concentration vs. time curve over the dose interval at steady state (AUC0-τ; also referred to as AUC0-48 or AUC0-24 as appropriate). Accumulation index (AI) and degree of fluctuation (DFL) were also evaluated at steady state.
Statistical Methods: An analysis of variance (ANOVA) was performed to compare single- and multiple-dose pharmacokinetics of paricalcitol. The model included effects for sequence, subject nested within sequence, day (i.e., first dose or last dose), and sequence by day interaction. The effect for subject was random, while all other effects were fixed. The analyzed variables include Tmax, β, and the logarithms of AUC and Cmax. The AUC value for the single dose was AUC0-∞, while the AUC for the multiple dose was AUC0-24. The trough concentrations were analyzed using the same ANOVA model described above to address the issue of steady state attainment for the QD regimen.
The logarithmic transformation was also used for AUC. The model had effects for sequence, subject nested within sequence, period and regimen. The effect for subject was random, while all other effects were fixed. […] Study Day 1 Tmax, β, dose-normalized Cmax and AUC0-∞ from Regimen A and Regimen B were analyzed using the same ANOVA model. […] This same model again was used to compare Regimen A and Regimen B with respect to AI values.

[3] = Regimen A 4 μg QD, Study Day 12
[4] = Regimen A 4 μg QD, Study Day 13
[5] = Regimen B 8 μg TIW, Study Day 1
[6] = Regimen B 8 μg TIW, Study Day 12 and 13
[7] = 4 ug, Regimen A 4 μg QD, Study Day 1
[8] = 4 ug, Regimen A 4 μg QD, Study Day 12
[9] = 4 ug, Regimen A 4 μg QD, Study Day 13
[10] = 8 ug, Regimen B 8 μg TIW, Study Day 1
[11] = 8 ug, Regimen B 8 μg TIW, Study Day 12 and 13

For `C[C@H](/C=C/[C@H](C)C(C)(C)O)[C@H]1CC[C@H]2/C(=C/C=C3C[C@@H](O)C[C@H](O)C3)CCC[C@]12C` [Paricalcitol, 19-nor-1α,3β,25-trihydroxy-9,10-secoergosta-5(Z); 7(E),22(E)-triene], the half-life ([1]; 0.24 ug/kg, 0.24 μg/kg single dose, hemodialysis, harmonic mean ± pseudo-standard deviation) was about 14 h, the bioavailability ([1]; 0.24 μg/kg, single oral dose, nonfasting, end-stage renal disease on hemodialysis, read-out: estimated absolute bioavailability) was 78.8% and the “steady state reached by” value ([2]; 4 μg QD or 8 μg TIW) was at most 7 Study Day. For the same compound, the CL/F ([2]; Regimen A 4 μg QD, Study Day 1) was 3.95 ± 1.19^Φ L/h, the Vdβ/F ([2]; Regimen A 4 μg QD, Study Day 1) was 38.9 ± 18.7^Φ L and the AI [2, 3] was 1.759 ± 1.829. For the same compound, the CL/F [2, 3] was 4.33 ± 2.08 L/h, the Cmin [2, 3] was 0.005 ± 0.010 ng/mL and the DFL [2, 3] was 2.584 ± 0.889. For the same compound, the Vdβ/F [2, 3] was 44.9 ± 23.0^ε L, the AI [2, 4] was 1.483 ± 1.442 and the AUC/Dose (AUC0-24/Dose) [2, 4] was 0.226 ± 0.049 ng·h/mL/µg. It also gave a CL/F [2, 4] of 4.65 ± 1.16 L/h, a Cmin [2, 4] of 0.001 ± 0.005 ng/mL and a DFL [2, 4] of 2.761 ± 0.761. The Vdβ/F [2, 4] was 43.7 ± 17.9^ε L, the CL/F [2, 5] was 3.65 ± 1.61 L/h and the Vdβ/F [2, 5] was 41.0 ± 12.7 L. For the same compound, the AI [2, 6] was 1.000 ± 0.312, the CL/F [2, 6] was 3.79 ± 1.07 L/h and the Cmin [2, 6] was 0.000 ± 0.000 ng/mL. For the same compound, the DFL [2, 6] was 4.637 ± 1.397, the Vdβ/F [2, 6] was 42.1 ± 28.7^δ L and the AUC(0-inf) [2, 7] was 1.11 ± 0.342 ng·h/mL. It also gave a Cmax [2, 7] of 0.1 ± 0.033 ng/mL, a Tmax [2, 7] of 4.8 ± 2.8 h and a half-life [2, 7] of 6.2 ± 2.1 h. For the same compound, the AUC(0-t) ([2]; 4 ug, Regimen A 4 μg QD, Study Day 1, read-out: AUC0-t) was 0.701 ± 0.339 ng·h/mL, the Cmax [2, 8] was 0.112 ± 0.031 ng/mL and the Tmax [2, 8] was 4.4 ± 2.6 h. The half-life [2, 8] was 6.8 ± 3.1 h, the AUC(0-t) ([2]; 4 ug, Regimen A 4 μg QD, Study Day 12, read-out: AUC0-τ (AUC0-24)) was 1.07 ± 0.359 ng·h/mL and the Cmax [2, 9] was 0.105 ± 0.035 ng/mL. For the same compound, the Tmax [2, 9] was 4.5 ± 1.6 h, the half-life [2, 9] was 5.8 ± 2.5 h and the AUC(0-t) ([2]; 4 ug, Regimen A 4 μg QD, Study Day 13, read-out: AUC0-τ (AUC0-24)) was 0.904 ± 0.196 ng·h/mL. The AUC(0-inf) [2, 10] was 2.55 ± 1.08 ng·h/mL, the Cmax [2, 10] was 0.2 ± 0.062 ng/mL and the Tmax [2, 10] was 4.4 ± 1.4 h. For the same compound, the half-life [2, 10] was 7.3 ± 3.2 h, the AUC(0-t) ([2]; 8 ug, Regimen B 8 μg TIW, Study Day 1, read-out: AUC0-t) was 2.05 ± 0.881 ng·h/mL and the Cmax [2, 11] was 0.217 ± 0.077 ng/mL. The Tmax [2, 11] was 4.3 ± 2.6 h, the half-life [2, 11] was 6.8 ± 2.2 h and the AUC(0-t) ([2]; 8 ug, Regimen B 8 μg TIW, Study Day 12 and 13, read-out: AUC0-τ (AUC0-48)) was 2.26 ± 0.566 ng·h/mL. For the same compound, the “dose proportionality of pharmacokinetics” value ([2]; single dose and steady state over the studied dose range) was “dose proportional”.
